“And” between values parts separate entries of the source, which are not always exact repeats. Equal values may be shown once.
Experiments:
guinea pig lung slices = assay: Methacholine-induced airway constriction in guinea pig lung slices; format: cell-based; parameters: key to MCh-induced airway constriction response (Figure 5D): % of initial (baseline) airway luminal area; conditions: for MCh-induced airway constriction response (Figure 5D): 10 µM Fenoterol + 25 µM Cmp6, Exp1-6
Experimental: All curve fits were generated using the software program GraphPad Prism. Data are represented as mean ± SEM obtained from 6 guinea pigs.
(§1) Precision-cut lung slices were prepared as described previously ([61], [62]). A 3% solution of low melting-point agarose (Gerbu Biotechnik GmbH) in ultrapure water was prepared by heating it a microwave until fully dissolved. […] After filling, the lungs were covered with ice for 30 minutes to solidify the agarose for slicing. […] Lung slices were cut at a thickness of 500 μm and washed several times with slicing buffer to remove debris and washout the isoproterenol. Slices were incubated overnight in a 60 mm dish in sterile incubation buffer: MEM composed of lung slice buffer supplemented with 0.5 mM sodium pyruvate, 1 mM glutamine (Gibco), MEM-amino acids mixture (1:50), MEM-vitamins mixture (1:100; Gibco), and penicillin-streptomycin (1:100; Gibco), pH = 7.2, at 37°C in a CO2- and humidity-controlled atmosphere.
(§2) After washing the slices in medium, individual guinea pig lung slices were mechanically maintained with a Teflon ring with an inner diameter of 7 mm and covered with 1 mL of incubation buffer. […] Image acquisition software (NIS-Elements, Nikon) was used to quantify airway luminal area. Images of the airways were acquired every 2 seconds during the whole course of the experiment, starting 2 minutes before the addition of any agent to allow for baseline measurements of the airway caliber. For each methacholine or ovalbumin concentration, the maximal airway constriction was expressed as percentage of the initial (baseline) airway luminal area and plotted against that concentration.

WT murine β2AR = WT murine β2AR (Mus musculus, UniProt P18762); assay: 125I-CYP radioligand competition binding, WT murine β2AR; conditions: WT DMSO
Experimental: (§3) Statistical analyses were performed using 1-way ANOVA, repeated (related) measures with Tukey’s posthoc test.

guinea pig β2AR = guinea pig β2AR (Cavia porcellus, UniProt Q8K4Z4); assay: 125I-CYP radioligand competition binding, guinea pig β2AR; conditions: DMSO
V133F mutant murine β2AR = V133F mutant murine β2AR (Mus musculus, UniProt P18762, V133F); assay: 125I-CYP radioligand competition binding, V133F mutant murine β2AR; conditions: V133F DMSO
Experimental: as §3

[1] = test system: lung slices obtained from ovalbumin-sensitized guinea pigs; assay: Ovalbumin-induced airway constriction in lung slices from ovalbumin-sensitized guinea pigs; format: cell-based, guinea pig; conditions: ovalbumin-sensitized guinea pigs; no treatment
Source text: All curve fits were generated using the software program GraphPad Prism. Data are represented as mean ± SEM of 4–5 guinea pigs (see Table 2 for statistical analyses).
Outbred, male, specified pathogen-free Dunkin Hartley guinea pigs (Charles River Laboratory) weighing 200 to 400 g were used. The animals were housed in pairs under a 12-hour light/dark cycle in a temperature- and humidity-controlled room with food and tap water ad libitum. For studies in the guinea pig model of allergic asthma, animals were actively IgE-sensitized to ovalbumin by injecting a suspension containing 100 μg/mL ovalbumin and 100 mg/mL Al(OH)3 in saline. Each animal was injected with 1.0 mL of suspension: 0.5 mL was injected i.p. and 0.5 mL was divided over 7 s.c. sites close to lymph nodes in the neck, paws, and lumbar regions ([24]). Animals were euthanized at least 4 weeks after sensitization.
as §1, §2

Chain of V133F mutant murine β2AR (P18762 whole entry V133F): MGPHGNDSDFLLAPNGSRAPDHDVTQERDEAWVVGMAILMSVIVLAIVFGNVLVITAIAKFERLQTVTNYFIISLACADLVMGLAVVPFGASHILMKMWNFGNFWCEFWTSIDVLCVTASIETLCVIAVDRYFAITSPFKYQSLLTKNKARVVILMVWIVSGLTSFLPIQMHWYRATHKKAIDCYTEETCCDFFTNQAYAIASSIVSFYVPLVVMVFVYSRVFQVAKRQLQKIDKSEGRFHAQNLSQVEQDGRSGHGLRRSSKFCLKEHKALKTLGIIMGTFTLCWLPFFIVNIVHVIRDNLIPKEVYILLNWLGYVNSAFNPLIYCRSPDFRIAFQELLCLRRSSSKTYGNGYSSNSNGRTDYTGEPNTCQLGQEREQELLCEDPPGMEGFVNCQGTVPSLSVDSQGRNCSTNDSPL
Chain of guinea pig β2AR (Q8K4Z4 whole entry): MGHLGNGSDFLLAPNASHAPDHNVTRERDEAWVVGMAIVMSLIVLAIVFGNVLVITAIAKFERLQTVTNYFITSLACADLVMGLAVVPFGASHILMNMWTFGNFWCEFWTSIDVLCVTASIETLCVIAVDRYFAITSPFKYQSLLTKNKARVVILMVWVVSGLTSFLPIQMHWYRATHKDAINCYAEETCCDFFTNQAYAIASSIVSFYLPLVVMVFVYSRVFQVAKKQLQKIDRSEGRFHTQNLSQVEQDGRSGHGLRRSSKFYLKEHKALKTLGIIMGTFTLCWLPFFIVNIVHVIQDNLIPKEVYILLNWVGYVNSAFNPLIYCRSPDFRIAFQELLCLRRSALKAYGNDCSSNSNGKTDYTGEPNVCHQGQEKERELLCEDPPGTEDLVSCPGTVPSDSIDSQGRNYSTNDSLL
Chain of WT murine β2AR (P18762 whole entry): as the sequence (P18762 whole entry V133F) above, with F133V counted along it

With COc1ccc(Sc2ccc(S(=O)(=O)N(C)C(C)C)cc2C(=O)N[C@H](CC(N)=O)Cc2ccc(C(C)(C)C)cc2)cc1 [Cmp6] the “MCh-induced airway constriction response (Figure 5D)” value (guinea pig lung slices; -Log [MCh] 6.5) was 84.9 and 96.3 and 94.4 and 89.0 and 84.3, the “MCh-induced airway constriction response (Figure 5D)” value (guinea pig lung slices; -Log [MCh] 7) was 103.8 and 101.2 and 95.0 and 101.0 and 99.7 and the “MCh-induced airway constriction response (Figure 5D)” value (guinea pig lung slices; -Log [MCh] 7.5) was 104.7 and 102.5 and 101.8 and 96.6 and 103.6 and 102.8. The “MCh-induced airway constriction response (Figure 5D)” value (guinea pig lung slices; -Log [MCh] 8) was 105.1 and 102.7 and 102.2 and 96.3 and 103.7 and 102.1.

With CC(C)NCC(O)c1ccc(O)c(O)c1 (stereo not shown) [ISO, isoproterenol, reference compound] the “125I-CYP binding (% of maximal)” value (WT murine β2AR; log[ISO] -4 M) was -0.1438% and -0.4111% and -0.227% and -0.3498%, the “125I-CYP binding (% of maximal)” value (WT murine β2AR; log[ISO] -4.49485 M) was 2.592% and 1.529% and 1.507% and 1.987% and the “125I-CYP binding (% of maximal)” value (WT murine β2AR; log[ISO] -5.09691 M) was 7.083% and 4.639% and 5.507% and 5.149%. For the same molecule, the “125I-CYP binding (% of maximal)” value (WT murine β2AR; log[ISO] -5.69897 M) was 19.715% and 17.6774% and 15.359% and 15.8985%, the “125I-CYP binding (% of maximal)” value (WT murine β2AR; log[ISO] -6.30103 M) was 44.1973% and 39.2701% and 36.5787% and 38.852% and the “125I-CYP binding (% of maximal)” value (WT murine β2AR; log[ISO] -6.90309 M) was 69.5556% and 67.7036% and 62.3553% and 65.7463%. For the same molecule, the “125I-CYP binding (% of maximal)” value (WT murine β2AR; log[ISO] -7.50515 M) was 90.4216% and 85.9767% and 84.6762% and 89.3527%, the “125I-CYP binding (% of maximal)” value (WT murine β2AR; log[ISO] -8.10721 M) was 98.0111% and 97.6178% and 94.6894% and 94.0001% and the “125I-CYP binding (% of maximal)” value (WT murine β2AR; log[ISO] -8.70927 M) was 99.06% and 99.1113% and 98.9767% and 100.68%. The “125I-CYP binding (% of maximal)” value (WT murine β2AR; log[ISO] -9.31133 M) was 98.5309% and 100.484% and 102.846% and 102.836%, the “125I-CYP binding (% of maximal)” value (WT murine β2AR; log[ISO] -9.91339 M) was 103.967% and 101.665% and 101.826% and 99.0182% and the “125I-CYP binding, ISO competition curve (Figure 4B)” value (“125I-CYP binding … (Figure 4B)” below) (guinea pig β2AR; Log [ISO] (M) -4.49485) was 1.551 and 1.783 and 2.036 and 2.11 and 1.706. The “125I-CYP binding … (Figure 4B)” value (guinea pig β2AR; Log [ISO] (M) -5.09691) was 4.5383 and 7.032 and 7.563 and 7.078 and 5.303, the “125I-CYP binding … (Figure 4B)” value (guinea pig β2AR; Log [ISO] (M) -5.69897) was 13.7083 and 20.96 and 21.5014 and 20.9933 and 15.5868 and the “125I-CYP binding … (Figure 4B)” value (guinea pig β2AR; Log [ISO] (M) -6.90309) was 63.0711 and 57.4939 and 78.0004 and 74.7226 and 70.0255. For the same molecule, the “125I-CYP binding … (Figure 4B)” value (guinea pig β2AR; Log [ISO] (M) -7.50515) was 85.6262 and 93.2237 and 94.6971 and 93.7843 and 89.3743, the “125I-CYP binding … (Figure 4B)” value (guinea pig β2AR; Log [ISO] (M) -8.10721) was 99.3825 and 97.8919 and 98.1464 and 96.8121 and 98.8078 and the “125I-CYP binding … (Figure 4B)” value (guinea pig β2AR; Log [ISO] (M) -8.70927) was 98.4434 and 97.4234 and 99.4183 and 101.041 and 99.2113. For the same molecule, the “125I-CYP binding … (Figure 4B)” value (guinea pig β2AR; Log [ISO] (M) -9.31133) was 100.682 and 98.3967 and 100.968 and 99.8594 and 99.9768, the “125I-CYP binding … (Figure 4B)” value (guinea pig β2AR; Log [ISO] (M) -9.91339) was 97.8042 and 98.3188 and 100.175 and 101.941 and 100.458 and the “125I-CYP binding (% of maximal)” value (V133F mutant murine β2AR; log[ISO] -4 M) was -0.1642% and -0.422% and -0.2235% and 0.05522%. For the same molecule, the “125I-CYP binding (% of maximal)” value (V133F mutant murine β2AR; log[ISO] -4.49485 M) was 1.355% and 1.539% and 1.229% and 0.6906%, the “125I-CYP binding (% of maximal)” value (V133F mutant murine β2AR; log[ISO] -5.09691 M) was 4.785% and 4.497% and 3.5069% and 4.749% and the “125I-CYP binding (% of maximal)” value (V133F mutant murine β2AR; log[ISO] -5.69897 M) was 14.8509% and 14.5905% and 12.5433% and 13.7771%. For the same molecule, the “125I-CYP binding (% of maximal)” value (V133F mutant murine β2AR; log[ISO] -6.30103 M) was 36.9962% and 34.2695% and 32.8754% and 34.2526%, the “125I-CYP binding (% of maximal)” value (V133F mutant murine β2AR; log[ISO] -6.90309 M) was 66.198% and 62.9489% and 57.7767% and 62.1859% and the “125I-CYP binding (% of maximal)” value (V133F mutant murine β2AR; log[ISO] -7.50515 M) was 86.6591% and 87.6539% and 79.9524% and 86.2876%. The “125I-CYP binding (% of maximal)” value (V133F mutant murine β2AR; log[ISO] -8.10721 M) was 96.9071% and 95.4546% and 94.0497% and 96.919%, the “125I-CYP binding (% of maximal)” value (V133F mutant murine β2AR; log[ISO] -8.70927 M) was 99.4994% and 99.6962% and 98.92% and 100.879% and the “125I-CYP binding (% of maximal)” value (V133F mutant murine β2AR; log[ISO] -9.31133 M) was 99.9887% and 99.7215% and 100.53% and 99.951%. The “125I-CYP binding (% of maximal)” value (V133F mutant murine β2AR; log[ISO] -9.91339 M) was 102.257% and 101.759% and 102.441% and 98.1746%.

CC(=O)OC(C)C[N+](C)(C)C (stereo not shown) [Methacholine, methacholine] gave an EC50 (guinea pig lung slices; Cavia porcellus, naive guinea pigs, no treatment, read-out: EC50 of airway constriction) of 250 ± 60 nM.

B1: Ovalbumin: the allergen used in IgE-sensitized guinea pigs (protein, UniProt P01012 2-386, looked up)
Ovalbumin: GSIGAASMEFCFDVFKELKVHHANENIFYCPIAIMSALAMVYLGAKDSTRTQINKVVRFDKLPGFGDSIEAQCGTSVNVHSSLRDILNQITKPNDVYSFSLASRLYAEERYPILPEYLQCVKELYRGGLEPINFQTAADQARELINSWVESQTNGIIRNVLQPSSVDSQTAMVLVNAIVFKGLWEKAFKDEDTQAMPFRVTEQESKPVQMMYQIGLFRVASMASEKMKILELPFASGTMSMLVLLPDEVSGLEQLESIINFEKLTEWTSSNVMEERKIKVYLPRMKMEEKYNLTSVLMAMGITDVFSSSANLSGISSAESLKISQAVHAAHAEINEAGREVVGSAEAGVDAASVSEEFRADHPFLFCIKHIATNAVLFFGRCVSP
With B1 the “EC50 of airway constriction” value [1] was 8.0 ± 2.4 ng/mL.

Source: publication PMC10503797, “Allosteric modulator potentiates β2AR agonist–promoted bronchoprotection in asthma models” (The Journal of Clinical Investigation, 2023)
